{
  "source": "patent US20240350489A1",
  "about": "“LOU064 FOR TREATING MULTIPLE SCLEROSIS” (NOVARTIS AG, priority 2021, published 2024)",
  "key": {"[1]": {"test": "Levels of LOU064 in mouse tissues (blood, brain, CSF)", "assay_type": "in vivo", "conditions": "for concentration at 1 h / concentration at 5 h / concentration at 8 h: C57BL/6, mouse, oral", "protocol": "The compound levels in total brain homogenate are very low and mainly detectable at the early timepoint. Similarly, the levels in cerebrospinal fluid (CSF) are low.\nBlood, brain and CSF levels of LOU064 after oral dosing of 3 and 30 mg/kg b.i.d. The LLOQ were 0.2 nM in blood, […] in brain homogenate and 0.5 nM in CSF. Shown are averages ±SD from 4 animals for the 1 h timepoints and from 3 animals for the 5 and 8 h timepoints. Where denoted with ^a, the values were derived from one animal of three that was above the LLOQ."}, "[2]": {"system": "MOG-specific immunoglobulin responses", "test": "MOG-specific immunoglobulin responses in serum, HumanMOG EAE", "assay_type": "in vivo, mouse", "conditions": "oral b.i.d. treatment", "description": "In the HumanMOG-induced EAE model the (auto)antibody response is weakly pathogenic."}, "[3]": {"system": "B-cell and CD4+ T-cell populations", "test": "Ex vivo analysis of B-cell and CD4+ T-cell populations, HumanMOG EAE", "design": "species or system mouse", "conditions": "dosed in vivo b.i.d.", "description": "Prophylactic LOU064 (b.i.d.) treatment during HumanMOG EAE reduces Th17 cells. […] Group sizes n=5 per treatment. Statistical significance (ANOVA with Dunnett's test) is shown as *p<0.05."}, "[4]": {"test": "Phase 2b trial in CSU, efficacy over 12 weeks", "assay_type": "in vivo, human", "conditions": "25 mg b.i.d. regimen", "method": "(§1) In a Phase 2b, randomized, double-blind, placebo-controlled trial evaluating the efficacy and safety of LOU064 over 12 weeks in patients inadequately controlled by Hi-antihistamines, with at least moderately active CSU, patients received LOU064 10 mg q.d. (once daily), 35 mg q.d., 100 mg q.d., 10 mg b.i.d. (twice daily), 25 mg b.i.d., 100 mg b.i.d., or placebo (1:1:1:1:1:1:1 ratio)."}, "[5]": {"test": "Phase 2b dose range finding core study in CSU subjects, safety", "conditions": "for overall tolerability / safety profile: whole dose range", "method": "as §1\nIn a dose range finding study conducted in CSU subjects the following doses are being tested: 10, 35 and 100 mg q.d. as well as 10, 25 and 100 mg b.i.d. and placebo over 12 weeks."}, "[6]": {"conditions": "core study, any LOU064 dose, listed as remibrutinib"}},
  "note": "“Also recorded” adds a separate entry of the source. Read-outs that look alike come from different tables or passages of the source.",
  "data": [
    {"smiles": "C=CC(=O)N(C)CCOc1c(N)ncnc1-c1cc(F)cc(NC(=O)c2ccc(C3CC3)cc2F)c1C", "note": "[LOU064, N-(3-(6-amino-5-(2-(N-methylacrylamido)ethoxy)pyrimidin-4-yl)-5-fluoro-2-methylphenyl)-4-cyclopropyl-2-fluorobenzamide]", "values": [
      {"measurement": "Levels of LOU064, Brain", "setting": "[1]; 3 mg/kg p.o. b.i.d., 1 h", "result": "2.3 ± 2.2", "unit": "pmol/g"},
      {"measurement": "Levels of LOU064, Brain", "setting": "[1]; 3 mg/kg p.o. b.i.d., 5 h", "result": "<0.5", "unit": "pmol/g"},
      {"measurement": "Levels of LOU064, Brain", "setting": "[1]; 3 mg/kg p.o. b.i.d., 8 h", "result": "<0.5", "unit": "pmol/g"},
      {"measurement": "Levels of LOU064, Brain", "setting": "[1]; 30 mg/kg p.o. b.i.d., 1 h", "result": "13.5 ± 6.0", "unit": "pmol/g"},
      {"measurement": "Levels of LOU064, CSF", "setting": "[1]; 30 mg/kg p.o. b.i.d., 1 h", "result": "8.4 ± 3.1", "unit": "nM"},
      {"measurement": "Levels of LOU064, Brain", "setting": "[1]; 30 mg/kg p.o. b.i.d., 5 h", "result": "0.7 ± 0.02", "unit": "pmol/g"},
      {"measurement": "Levels of LOU064, Brain", "setting": "[1]; 30 mg/kg p.o. b.i.d., 8 h", "result": "<0.5", "unit": "pmol/g"},
      {"measurement": "concentration at 1 h", "setting": "[1]; CSF, 3 mg/kg p.o. b.i.d., 1 h, read-out: Levels of LOU064, CSF", "result": "3 ± 3.3", "unit": "nM"},
      {"measurement": "concentration at 5 h", "setting": "[1]; CSF, 3 mg/kg p.o. b.i.d., 5 h, one animal of three above LLOQ, read-out: Levels of LOU064, CSF", "result": 0.5, "unit": "nM"},
      {"measurement": "concentration at 8 h", "setting": "[1]; CSF, 3 mg/kg p.o. b.i.d., 8 h, read-out: Levels of LOU064, CSF", "result": "< 0.5", "unit": "nM"},
      {"measurement": "concentration at 5 h", "setting": "[1]; CSF, 30 mg/kg p.o. b.i.d., 5 h, one animal of three above LLOQ, read-out: Levels of LOU064, CSF", "result": 0.5, "unit": "nM"},
      {"measurement": "concentration at 8 h", "setting": "[1]; CSF, 30 mg/kg p.o. b.i.d., 8 h, read-out: Levels of LOU064, CSF", "result": "< 0.5", "unit": "nM"},
      {"measurement": "concentration at 1 h", "setting": "[1]; whole blood, 3 mg/kg p.o. b.i.d., 1 h, read-out: Levels of LOU064, Blood", "result": "28.2 ± 11.7", "unit": "nM"},
      {"measurement": "concentration at 5 h", "setting": "[1]; whole blood, 3 mg/kg p.o. b.i.d., 5 h, read-out: Levels of LOU064, Blood", "result": "0.4 ± 0.04", "unit": "nM"},
      {"measurement": "concentration at 8 h", "setting": "[1]; whole blood, 3 mg/kg p.o. b.i.d., 8 h, read-out: Levels of LOU064, Blood", "result": "0.2 ± 0.07", "unit": "nM"},
      {"measurement": "concentration at 1 h", "setting": "[1]; whole blood, 30 mg/kg p.o. b.i.d., 1 h, read-out: Levels of LOU064, Blood", "result": "371 ± 149", "unit": "nM"},
      {"measurement": "concentration at 5 h", "setting": "[1]; whole blood, 30 mg/kg p.o. b.i.d., 5 h, read-out: Levels of LOU064, Blood", "result": "19.4 ± 9.9", "unit": "nM"},
      {"measurement": "concentration at 8 h", "setting": "[1]; whole blood, 30 mg/kg p.o. b.i.d., 8 h, read-out: Levels of LOU064, Blood", "result": "3.4 ± 2.3", "unit": "nM"},
      {"measurement": "MOG-specific IgG2c", "setting": "[2]", "result": "No change was detected"},
      {"measurement": "MOG-specific IgM and IgG responses in serum", "setting": "[2]", "result": "significantly reduced"},
      {"measurement": "Th1 and Tregs", "setting": "[3]", "result": "unchanged; also recorded: No changes were observed"},
      {"measurement": "Th17 (IL-17+) cells", "setting": "[3]", "result": "reduced; also recorded: significant reduction"},
      {"measurement": "frequencies of B-cell populations", "setting": "[3]", "result": "no significant changes in total B-cell populations"},
      {"measurement": "total CD4+ T-cell population", "setting": "[3]", "result": "unchanged"},
      {"measurement": "efficacy in CSU", "setting": "[4]", "result": "particularly effective compared to the other doses"},
      {"measurement": "Grade 3 creatinine elevation, patients", "setting": "[5]; 10 mg q.d., Week 8, after starting a ketogenic diet", "result": "One"},
      {"measurement": "Grade 3 neutrophil count decrease", "setting": "[5]; 35 mg q.d., Week 12", "result": "one"},
      {"measurement": "Grade 3 alanine transaminase elevation", "setting": "[5]; 100 mg q.d., Week 8", "result": "one"},
      {"measurement": "deaths", "setting": "[5]; core study", "result": "no deaths"},
      {"measurement": "laboratory findings, including blood cell counts", "setting": "[5]; core study", "result": "no significant laboratory findings"},
      {"measurement": "AE Headache (PT)", "setting": "[5]; [6]", "result": 9.7, "unit": "%"},
      {"measurement": "AE Infections and infestations (SOC)", "setting": "[5]; [6]", "result": 24.0, "unit": "%"},
      {"measurement": "AE Skin and subcutaneous tissue disorders (SOC)", "setting": "[5]; [6]", "result": 16.9, "unit": "%"},
      {"measurement": "Common Terminology Criteria for AEs Grade 3 events (laboratory data)", "setting": "[5]; core study, in total", "result": "three"},
      {"measurement": "patients with ALT>5xULN", "setting": "[5]; core study, normalised on treatment", "result": 1, "unit": "patient"},
      {"measurement": "overall tolerability / safety profile", "setting": "[5]", "result": "well-tolerated across the whole dose range"},
      {"measurement": "overall tolerability / safety profile", "setting": "[5]; listed as Remibrutinib", "result": "favorable safety profile across the whole dose range"}
    ]}
  ]
}
